Results from ChEMBL document CHEMBL6087487, “Discovery of a 2'-α-Fluoro-2'-β-C-(fluoromethyl) Purine Nucleotide Prodrug as a Potential Oral Anti-SARS-CoV-2 Agent” (J Med Chem, 2025).

Columns and labels:
SARS-CoV-2 [1] = assay: (§1) Antiviral activity against SARS-CoV-2 20SF107 infected in HPAEpiC cells assessed as inhibition of viral replication pretreated with compound and subsequent introduction of viral infection for 1 hr followed by inoculum removal and compound washout and further treatment with compound for 48 hrs by RT-qPCR analysis; type: functional, organism-based; conditions: for EC50: Severe acute respiratory syndrome coronavirus 2, 20SF107, HPAEpiC
SARS-CoV-2 [2] = assay: as §1, with “Omicron BA.5” for “20SF107”; type: functional, organism-based; conditions: Severe acute respiratory syndrome coronavirus 2, Omicron BA.5, HPAEpiC

Row | SMILES | EC50 (SARS-CoV-2 [1]) [nM] | inhibition (SARS-CoV-2 [1]; Severe acute respiratory syndrome coronavirus 2, time 49.0 hrs) | EC50 (SARS-CoV-2 [2]) [nM]
1 | CNc1nc(N)nc2c1ncn2[C@@H]1O[C@H](CO[P@@](=O)(N[C@@H](C)C(=O)OC(C)C)Oc2ccccc2)[C@@H](O)[C@]1(F)CF.O=S(=O)(O)O | 560 | Dose-dependent-effect | 960
2 | CCC(CC)COC(=O)[C@H](C)N[P@](=O)(OC[C@H]1O[C@@](C#N)(c2ccc3c(N)ncnn23)[C@H](O)[C@@H]1O)Oc1ccccc1 [REMDESIVIR] | 910 | – | –
